PubChem BioAssay AID330 (DTP/NCI, 2004)
Toxic doses and inconclusive results are not listed. How the source made its calls: active means survival T/C of 150% or more; inactive means T/C below 125% in these data. Peptide text beside a SMILES is read from it. * marks the point of attachment. For = O=C*

Test system: P388 leukemia ip, CD2F1 mice, survival T/C
Assay: NCI In Vivo Anticancer Drug Screen. Data for tumor model P388 Leukemia (intraperitoneal) in CD2F1 (CDF1) mice
Conditions: endpoint: median survival time, higher = longer survival
How it was run: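 Mice carrying the transplanted tumor received test compound or vehicle. Survival was recorded in each group, and the value is the treated-group measurement divided by that of the vehicle-treated control group.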

[1] = dose: 50.0 mg/kg/injection, schedule: Q01DX005 (ip), vehicle: saline with Tween-80
[2] = dose: 100.0 mg/kg/injection, schedule: Q01DX005 (ip), vehicle: saline with Tween-80
[3] = dose: 100.0 mg/kg/injection, schedule: Q01DX001 (ip), vehicle: saline with Tween-80
[4] = dose: 200.0 mg/kg/injection, schedule: Q01DX001 (ip), vehicle: saline with Tween-80
[5] = dose: 400.0 mg/kg/injection, schedule: Q01DX001 (ip), vehicle: saline with Tween-80
[6] = dose: 50.0 mg/kg/injection, schedule: Q01DX009 (ip), vehicle: Klucel (hydroxypropylcellulose) (HPC)
[7] = dose: 100.0 mg/kg/injection, schedule: Q01DX009 (ip), vehicle: Klucel (hydroxypropylcellulose) (HPC)

Measured: T/C

COC(=S)NC(=O)c1ccc(F)cc1
inactive: dose: 50.0 mg/kg/injection, schedule: Q01DX009 (ip), vehicle: saline with Tween-80 103 % of control | dose: 100.0 mg/kg/injection, schedule: Q01DX009 (ip), vehicle: saline with Tween-80 112 % of control | dose: 200.0 mg/kg/injection, schedule: Q01DX009 (ip), vehicle: saline with Tween-80 117 % of control | dose: 400.0 mg/kg/injection, schedule: Q01DX009 (ip), vehicle: saline with Tween-80 110 % of control

CN(C)c1ccc(C(Cc2ccc3ccccc3n2)Cc2ccc3ccccc3n2)cc1
inactive: [1] 99 % of control | [2] 88 % of control | dose: 200.0 mg/kg/injection, schedule: Q01DX005 (ip), vehicle: saline with Tween-80 89 % of control

CCOC(=O)C1=C(C(=O)c2ccc(OC)cc2)C(c2ccc(OC)c(OC)c2)C(C(=O)c2ccc(OC)cc2)=C(C(=O)OCC)N1
inactive: dose: 60.0 mg/kg/injection, schedule: Q01DX005 (ip), vehicle: saline with Tween-80 90 % of control | dose: 120.0 mg/kg/injection, schedule: Q01DX005 (ip), vehicle: saline with Tween-80 91 % of control

O=C(O)/C(=C/c1ccc(/C=C(/C(=O)O)c2ccccc2)o1)c1ccccc1
inactive: [3] 101 % of control | [4] 97 % of control | [5] 101 % of control

Nc1nc2nn(-c3ccc(C(=O)NC(CCC(=O)O)C(=O)O)cc3)nc2c(=O)[nH]1 (centres undefined)
inactive: dose: 12.5 mg/kg/injection, schedule: Q01DX009 (ip), vehicle: Klucel (hydroxypropylcellulose) (HPC) 95 % of control | dose: 25.0 mg/kg/injection, schedule: Q01DX009 (ip), vehicle: Klucel (hydroxypropylcellulose) (HPC) 94 % of control | [6] 94 % of control | [7] 96 % of control

Cc1ccc(NC(=O)CCC(=O)NS(C)(=O)=O)cc1
inactive: [3] 94 % of control | [4] 94 % of control | [5] 95 % of control

Cc1ccc(C[n+]2cc3ccccc3cc2/C=N\O)cc1
inactive: [1] 98 % of control | [2] 109 % of control

O=[N+]([O-])c1ccc(S(=O)(=O)NCCSSCCNS(=O)(=O)c2ccc([N+](=O)[O-])cc2)cc1
inactive: [6] 90 % of control | [7] 93 % of control | dose: 200.0 mg/kg/injection, schedule: Q01DX009 (ip), vehicle: Klucel (hydroxypropylcellulose) (HPC) 90 % of control

[O-][n+]1ccccc1C1CO1 (centres undefined)
inactive: dose: 6.25 mg/kg/injection, schedule: Q01DX009 (ip), vehicle: saline 105 % of control | dose: 12.5 mg/kg/injection, schedule: Q01DX009 (ip), vehicle: saline 103 % of control | dose: 25.0 mg/kg/injection, schedule: Q01DX009 (ip), vehicle: saline 102 % of control | dose: 100.0 mg/kg/injection, schedule: Q01DX009 (ip), vehicle: saline 88 % of control

CC(=O)[O][Hg][c]1cc(-c2ccc(N=Nc3c(S(=O)(=O)O)cc4cccc(N)c4c3O)cc2)ccc1N=Nc1c(S(=O)(=O)O)cc2cccc(N)c2c1O
inactive: dose: 3.13 mg/kg/injection, schedule: Q04DX003 (ip), vehicle: saline with Tween-80 90 % of control | dose: 6.25 mg/kg/injection, schedule: Q04DX003 (ip), vehicle: saline with Tween-80 95 % of control

CC(NC=O)C(=O)NCC(=O)NC(CO)C(=O)NC(CCC(=O)O)C(=O)O (centres undefined) (For-AGSE-OH; configuration not given here)
inactive: dose: 7.81 mg/kg/injection, schedule: Q01DX005 (ip), vehicle: water 105 % of control | dose: 15.63 mg/kg/injection, schedule: Q01DX005 (ip), vehicle: water 104 % of control | dose: 31.25 mg/kg/injection, schedule: Q01DX005 (ip), vehicle: water 101 % of control | dose: 62.5 mg/kg/injection, schedule: Q01DX005 (ip), vehicle: water 101 % of control | dose: 125.0 mg/kg/injection, schedule: Q01DX005 (ip), vehicle: water 99 % of control

N#CC(=N)C(C#N)=Nc1c(O)[nH]c2ccccc12
inactive: dose: 6.25 mg/kg/injection, schedule: Q01DX009 (ip), vehicle: DMSO 100 % of control | dose: 12.5 mg/kg/injection, schedule: Q01DX009 (ip), vehicle: DMSO 94 % of control | dose: 25.0 mg/kg/injection, schedule: Q01DX009 (ip), vehicle: DMSO 100 % of control | dose: 50.0 mg/kg/injection, schedule: Q01DX009 (ip), vehicle: DMSO 108 % of control
